Laboratory results from US4845093A, “N-benzoyl-N'-pyridazinyloxyphenyl urea compounds, and antitumorous compositions containing them, and process for their preparation” (Ishihara Sangyo Kaisha Ltd., priority 1984, dated 1989).
Read-outs that look alike come from different tables or passages of the source.

Assays:
[1] = tested on: p-388 leukemia cells; assay: Antitumour activity, P-388 leukemia in BDF1 mice, intraperitoneal-intraperitoneal (Test Example 1); type: in vivo; settings: Mus musculus, P388, ip, 720 h, read-out: ILS (Increase Life Span); for ILS at 200 mg/kg: 200 mg/kg/day i.p.; for ILS at 400 mg/kg: 400 mg/kg/day i.p.
Description: To BDF1 mice, p-388 leukemia cells were intraperitoneally inoculated in an amount of 1×10^6 cells/mouse. A test drug was intraperitoneally administered twice, i.e. one day and four days after the inoculation. […] The increase life span ILS (%)^* was obtained with the number of survival days of mice of the control group to which a physiological saline was administered, being evaluated as 100. The drugs were dispersions obtained by adding small amounts of surfactants (e.g. Tween-80) to the test compounds.
*ILS(%): Increase Life Span, calculated in accordance with the following
formula: ILS(%) = MST - 100, where MST is the ratio of median survival
time of test and control animals.

[2] = tested on: p-388 leukemia cells; assay: Antitumour activity, P-388 leukemia in BDF1 mice, intraperitoneal-oral (Test Example 2); type: in vivo; settings: one and four days after i.p. inoculation, Formulation Example 4
Text: To BDF1 mice, p-388 leukemia cells were intraperitoneally inoculated in an amount of 1×10^6 cells/mouse. A test drug was orally administered twice i.e. one day and four days after the inoculation. […] The test drugs and comparative drugs were formulated in accordance with Formulation Example 4 given hereinafter.
*ILS(%), **Comparative Compound No. 1 and ***Comparative Compound No. 2
are the same as mentioned above in the notes of Table 1.
(§1) The Compound No. 1 of the present invention was preliminarily pulverized by a centrifugal pulverizer. On the other hand, 5 parts by weight of polyoxyethylene (60) hardened castor oil, 0.2 part by weight of silicone and 0.3 part by weight of a polyoxyethylene-polyoxypropylene block polymer were added to 79.5 parts by weight of a physiological saline to obtain an aqueous solution, to which 10 parts by weight of the above pulverized Compound No. 1 of the present invention was added. The mixture was pulverized in a wet system by a sand mill using glass beads (80% of particles having a particle size of not larger than 2 μm). Then, 5 parts by weight of xanthane gum (2% solution) was added thereto to obtain an aqueous suspension.

[3] = Acute toxicity in ddY mice, intraperitoneal; settings: mouse, in vivo, ip, ddY mice (10 animals), formulated per Formulation Example 4
Description: To ddY mice (10 animals), a drug containing one of Compound Nos. 1-7 and 9-13 of the present invention formulated in accordance with Formulation Example 4 was intraperitoneally administered, and the LD50 value was measured and found to be at least 100 mg/kg in each case, and at least 50 mg/kg in the case of Compound Nos. 8 and 14 of the present invention.
as §1

[4] = one and four days after i.p. inoculation, 30 days observation
[5] = 100 mg/kg/day i.p., one and four days after i.p. inoculation, 30 days observation

| Compound | ILS at 200 mg/kg [1, 4] [%] | LD50 [3] [mg/kg] | also measured |
| --- | --- | --- | --- |
| O=c1[nH]cc(F)c(=O)[nH]1 [5-Fluorouracil, reference compound] | – | – | ILS at 60 mg/kg [1]: 85% |
| O=C(NC(=O)c1ccccc1Cl)Nc1ccc(Oc2ccc(Cl)nn2)c(Cl)c1 [Comparative Compound No. 1, N--(2chlorobenzoyl)-N'--[3chloro-4-(3-chloro-6-pyridazinyloxy)phenyl]urea, reference compound] | 24 | – | ILS at 400 mg/kg [1, 4]: 42%; ILS (Increase Life Span) ([2]; 800 mg/kg/day oral): 10% |
| O=C(NC(=O)c1c(Cl)cccc1Cl)Nc1ccc(Oc2ccc(Cl)nn2)c(Cl)c1 [Comparative Compound No. 2, N--(2,6dichlorobenzoyl)-N'--[3chloro-4-(3-chloro-6-pyridazinyloxy)phenyl]rea, reference compound] | -3 | – | ILS at 400 mg/kg [1, 4]: 5%; ILS (Increase Life Span) ([2]; 800 mg/kg/day oral): 0% |
| O=C(NC(=O)c1ccccc1[N+](=O)[O-])Nc1ccc(Oc2ccc(Br)nn2)c(Cl)c1 [Compound No. 1, N-(2-nitrobenzoyl)-N'-[4-(6-bromo-3-pyridazinyloxy)3-chlorophenyl]urea] | 178 | ≥ 100 | ILS (Increase Life Span) ([2]; 200 mg/kg/day oral): 58% |
| O=C(NC(=O)c1ccccc1[N+](=O)[O-])Nc1ccc(Oc2ccc(Cl)nn2)c(Cl)c1 [Compound No. 2, N-(2-nitrobenzoyl)-N'-[3-chloro-4-(6-chloro-3pyridazinyloxy)phenyl]urea] | 71 | ≥ 100 | – |
| O=C(NC(=O)c1ccccc1[N+](=O)[O-])Nc1ccc(Oc2ccc(I)nn2)c(Cl)c1 [Compound No. 3, N-(2-nitrobenzoyl)-N'-[3-chloro-4-(6-iodo-3-pyridazinyloxy)phenyl]urea] | – | ≥ 100 | ILS at 100 mg/kg [1, 5]: 92% |
| O=C(NC(=O)c1ccccc1[N+](=O)[O-])Nc1ccc(Oc2cccnn2)c(Cl)c1 [Compound No. 4, N-(2-nitrobenzoyl)-N'-[3-chloro-4-(3-pyridazinyloxy)phenyl]urea] | 70 | ≥ 100 | – |
| O=C(NC(=O)c1ccccc1[N+](=O)[O-])Nc1ccc(Oc2ccc(C(F)(F)F)nn2)c(Cl)c1 [Compound No. 5, N-(2-nitrobenzoyl)-N'-[3-chloro-4-(6-trifluoro-methyl-3-pyridazinyloxy)phenyl]urea] | 75 | ≥ 100 | – |
| O=C(NC(=O)c1ccccc1[N+](=O)[O-])Nc1ccc(Oc2ccc(Br)nn2)c(Br)c1 [Compound No. 6, N-(2-nitrobenzoyl)-N'-[3-bromo-4-(6-bromo-3-pyridazinyloxy)phenyl]urea] | – | ≥ 100 | – |
| O=C(NC(=O)c1ccccc1[N+](=O)[O-])Nc1ccc(Oc2ccc(Br)nn2)cc1 [Compound No. 7, N-(2-nitrobenzoyl)-N'-[4-(6-bromo-3-pyridazinyloxy)phenyl]urea] | – | ≥ 100 | ILS at 100 mg/kg [1]: > 120% |
| O=C(NC(=O)c1ccccc1[N+](=O)[O-])Nc1ccc(Oc2ccc(Cl)nn2)c(C(F)(F)F)c1 [Compound No. 8, N-(2-nitrobenzoyl)-N'-[4-(6-chloro-3-pyridazinyloxy)-3-trifluoromethylphenyl]urea] | – | ≥ 50 | ILS at 100 mg/kg [1, 5]: 75% |
| O=C(NC(=O)c1ccccc1[N+](=O)[O-])Nc1ccc(Oc2ccc(Br)nn2)c(F)c1 [Compound No. 9, N-(2-nitrobenzoyl)-N'-[4-(6-bromo-3-pyridazinyloxy)-3-fluorophenyl]urea] | – | ≥ 100 | ILS at 100 mg/kg [1]: 90%; ILS (Increase Life Span) ([2]; 200 mg/kg/day oral): 52% |
| O=C(NC(=O)c1ccc(Cl)cc1[N+](=O)[O-])Nc1ccc(Oc2ccc(Br)nn2)c(Cl)c1 [Compound No. 10, N-(4-chloro-2-nitrobenzoyl)-N'-[4-(6-bromo-3-pyridazinyloxy)-3-chlorophenyl]urea] | – | ≥ 100 | ILS at 100 mg/kg [1]: 111%; ILS (Increase Life Span) ([2]; 400 mg/kg/day oral): 32% |
| O=C(NC(=O)c1ccc([N+](=O)[O-])cc1[N+](=O)[O-])Nc1ccc(Oc2ccc(Br)nn2)c(Cl)c1 [Compound No. 11, N-(2,4-dinitrobenzoyl)-N'-[4-(6-bromo-3-pyridazinyloxy)-3-chlorophenyl]urea] | – | ≥ 100 | ILS at 100 mg/kg [1]: 102% |
| O=C(NC(=O)c1ccccc1Cl)Nc1ccc(Oc2ccc(Cl)nn2)c(C(F)(F)F)c1 [Compound No. 12, N-(2-chlorobenzoyl)-N'-[4-(6-chloro-3-pyridazinyloxy)-3-trifluoromethylphenyl]urea] | – | ≥ 100 | – |
| Cc1cc(NC(=O)NC(=O)c2ccccc2[N+](=O)[O-])ccc1Oc1ccc(Cl)nn1 [Compound No. 13, N-(2-nitrobenzoyl)-N'-[4-(6-chloro-3-pyridazinyloxy)-3-methylphenyl]urea] | – | ≥ 100 | – |
| O=C(NC(=O)c1ccc([N+](=O)[O-])cc1[N+](=O)[O-])Nc1ccc(Oc2ccc(Cl)nn2)c(C(F)(F)F)c1 [Compound No. 14, N-(2,4-dinitrobenzoyl)-N'-[4-(6-chloro-3-pyridazinyloxy)-3-trifluoromethylphenyl]urea] | – | ≥ 50 | – |
